Reference: PMC9135253, “Potential of phenothiazines to synergistically block calmodulin and reactivate PP2A in cancer cells” (PLoS ONE, 2022)
“And” between values parts separate entries of the source, which are not always exact repeats. Equal values may be shown once. Read-outs that look alike come from different tables or passages of the source.

Columns and labels:
Type in all cases: cell-based
[1] = system: H-RasG12V (Rluc8-/GFP2-tagged) in HEK-293 EBNA cells; experiment: H-RasG12V nanoclustering-BRET assay; conditions: for H-RasG12V BRET: compounds 20 μM, FTI-277 1 μM, OphA 2.5 μM, 24 h
[2] = system: K-RasG12V (Rluc8-/GFP2-tagged) in HEK-293 EBNA cells; experiment: K-RasG12V nanoclustering-BRET assay; conditions: for K-RasG12V BRET: compounds 20 μM, FTI-277 1 μM, OphA 2.5 μM, 24 h
[3] = system: pERK/ERK in MIA PaCa-2 cells; experiment: Western blot of MAPK signaling output (pERK/ERK); conditions: MIA PaCa-2 + EGF
[4] = system: caspase-3/7 activity in MDA-MB-231 cells; experiment: Caspase-3/7Glo assay; conditions: 24 h
From the text: (§1) Negative values (shaded red) indicate sensitivity of the cell line proliferation to the knockdown of shown genes, whereas positive scores (shaded blue) indicate insensitivity. (B) IC50 values for indicated compounds in Ras pathway mutant cell lines NCI-H358, MDA-MB231 and A375 grown as 3D spheroids under serum free conditions. […] Statistical comparisons were done using the average values across all three cell lines. […] Positive scores indicate synergistic drug interactions whereas negative scores would denote antagonistic drug interactions. A score of zero would indicate no antagonistic or synergistic effect. (D) Flow cytometric analysis of apoptosis in MDA-MB-231 cells. […] Benzethonium chloride and DMSO treated cells were used as positive and negative controls, respectively, for setting the gates. Percentage of total apoptotic cells (early and late stage) from two biological repeats (mean ± SD) is presented. Statistical analysis was performed using Fisher’s exact test comparing the total number of viable and apoptotic cells from two biological repeats. (E) Effect of inhibitors on cellular apoptosis studied using Caspase-3/7Glo assay. […] The caspase-3/7 activity was measured as a luminescence read-out and normalized to the vehicle control, 0.05% (v/v) DMSO. […] GAPDH detection was used as loading control.

[5] = system: A375 (BRAF-V600E) 3D spheroids; experiment: 3D spheroid formation assay (alamarBlue), A375
Procedure: (§2) 3D spheroid formation assays were performed in 96-well low-attachment, suspension culture plates (cat. no. 655185, Cellstar, Greiner Bio-One) under serum free conditions. About 1000 cells per well were seeded in 50 μL RPMI medium (cat. no. 52400–025, Gibco, ThermoFisher Scientific) containing 0.5% (v/v) MethoCult (cat. no. SF H4636, Stemcell technologies), 1X B27 (cat. no. 17504044, Gibco, ThermoFisher Scientific), 25 ng/mL EGF (cat. no. E9644, Sigma-Aldrich) and 25 ng/ mL FGF (cat. no. RP-8628, ThermoFisher Scientific). Cells were cultured for 3 days and then treated with compounds or vehicle control (DMSO 0.1% (v/v) in growth medium) for another 3 days. The cells were supplemented with fresh growth medium on the third day together with the drug treatment. Spheroid formation efficiency was analyzed by alamarBlue assay reagent (cat. no. DAL1100, ThermoFisher Scientific).
(§3) A 10% (v/v) final volume of alamarBlue reagent was added to each well of the plate and incubated for 4 h at 37°C. Then the fluorescence intensity (λexcitation 560 ± 5 nm and λemission 590 ± 5 nm) was measured using the FLUOstar OPTIMA plate reader (BMG Labtech, Germany).
as §1, with “(A) Heatmap of ATARiS gene sensitivity scores of two KRAS dependent cell lines (NCI-H358 and MDA-MB-231) and a BRAF dependent cell line (A375). Negative” for “Negative”

[6] = system: MDA-MB-231 (KRAS-G13D) 3D spheroids; experiment: 3D spheroid formation assay (alamarBlue), MDA-MB-231; conditions: read-out: IC50 values
Procedure: as §2, §3
as §1, with “(A) Heatmap of ATARiS gene sensitivity scores of two KRAS dependent cell lines (NCI-H358 and MDA-MB-231) and a BRAF dependent cell line (A375). Negative” for “Negative”

[7] = system: NCI-H358 (KRAS-G12C) 3D spheroids; experiment: 3D spheroid formation assay (alamarBlue), NCI-H358; conditions: read-out: IC50 values
Procedure: as §2, §3
as §1, with “(A) Heatmap of ATARiS gene sensitivity scores of two KRAS dependent cell lines (NCI-H358 and MDA-MB-231) and a BRAF dependent cell line (A375). Negative” for “Negative”

[8] = system: c-MYC in MDA-MB-231 cells; experiment: Western blot of c-MYC expression; conditions: 24 h
MDA-MB-231 cells = experiment: Flow cytometry-based apoptosis assay (Annexin V-FITC / 7-AAD); conditions: for apoptotic cells (%): DT-061 10 μM, calmidazolium 5 μM or combination, 24 h
Procedure: MDA-MB-231 cells were grown for 24 h in complete RPMI medium. The next day the cells were treated with inhibitors for 24 h. […] The cells were labelled using the Annexin V-FITC / 7-AAD apoptosis-detection kit (Beckman-Coulter, cat. no. B60224-AB) according to the manufacturer’s instruction.
as §1

- IC50 ([5]; A375 3D spheroids, serum free, 3 days treatment, replicates N1, N2): 2700 nM
- IC50 ([5]; Homo sapiens, A-375, 72 h, A375 3D spheroids, serum free, 3 days treatment, replicates N1, N2): 1500 nM
- IC50 ([5]; Homo sapiens, A-375, A375 3D spheroids, Mean, n = 2): 2100 nM
- IC50 ([6]; Homo sapiens, MDA-MB-231, 72 h, MDA-MB-231 3D spheroids, serum free, 3 days treatment, replicates N1, N2): 3000 nM
- IC50 ([6]; Homo sapiens, MDA-MB-231, MDA-MB-231 3D spheroids, Mean, n = 2): 3050 nM
- IC50 ([6]; MDA-MB-231 3D spheroids, serum free, 3 days treatment, replicates N1, N2): 3100 nM
- IC50 ([7]; Homo sapiens, NCI-H358, 72 h, NCI-H358 3D spheroids, serum free, 3 days treatment, replicates N1, N2): 2400 nM
- IC50 ([7]; Homo sapiens, NCI-H358, NCI-H358 3D spheroids, Mean, n = 2): 2650 nM
- IC50 ([7]; NCI-H358 3D spheroids, serum free, 3 days treatment, replicates N1, N2): 2890 nM
SMILES: O=S(=O)(N[C@@H]1CCC[C@H](N2c3ccccc3Oc3ccccc32)[C@H]1O)c1ccc(OC(F)(F)F)cc1 [DT-061]
- DSS3 BRET score ([1]; H-RasG12V nanoclustering-BRET dose response (0.1–80 μM; OphA 0.3–20 μM), replicates): 0.2 and 0.4
- DSS3 BRET score ([1]; H-RasG12V nanoclustering-BRET, mean): 0.3
- H-RasG12V BRET ([1]; A/D plasmid ratio 4/1, individual replicates N1.1-N2.4): 100.79 and 100.058 and 101.294 and 101.06 and 100.674 and 100.693 and 99.8758 and 99.7238
- H-RasG12V BRET ([1]; mean): 100.52
- effect on the RasG12V-BRET signals (in words) ([2]; K-RasG12V and H-RasG12V biosensors): Neither the PP2A activator DT-061, nor Flu had an effect
- DSS3 BRET score ([2]; K-RasG12V nanoclustering-BRET dose response (0.1–80 μM; OphA 0.3–20 μM), replicates): 0.6 and 1
- DSS3 BRET score ([2]; K-RasG12V nanoclustering-BRET, mean): 0.8
- K-RasG12V BRET ([2]; A/D plasmid ratio 4/1, individual replicates N1.1-N3.4): 102.439 and 101.315 and 102.277 and 100.953 and 98.6605 and 100.047 and 101.073 and 97.4843
- K-RasG12V BRET ([2]; mean): 100.53
- normalized pERK/ERK ratio % ([3]; 2 h, trametinib 1 μM, AMG-510 1 μM, calmidazolium 20 μM, DT-061 20 μM, combination each 10 μM, fluphenazine mustard 20 μM, replicates N1-N3): 84.4108% and 54.7097% and 80.94%
- normalized pERK/ERK ratio % ([3]; same treatments, mean): 73.35%
- caspase 3/7 activity (fold change) ([4]; DT-061 5 μM, calmidazolium 5 μM, combination 5 μM each, staurosporine 1 μM, normalized to DMSO, replicates): 0.9556 fold change and 1.016 fold change
- caspase 3/7 activity (fold change) ([4]; same treatments, mean): 0.99 fold change
- c-MYC/Vinculin relative expression ([8]; 10 μM, MDA-MB-231, replicates N1-N4): 1.352 and 1.842 and 0.8895 and 1.57
- c-MYC/Vinculin relative expression ([8]; 10 μM, Mean (DMSO 1.78)): 1.41
- c-MYC/Vinculin relative expression ([8]; 20 μM, MDA-MB-231, replicates N1-N4, values marked * excluded): 1.784* and 1.955* and 0.7599 and 0.9549
- c-MYC/Vinculin relative expression ([8]; 20 μM, Mean (DMSO 1.48)): 0.86
- apoptotic cells (%) (MDA-MB-231 cells; early and late stage, replicates N1, N2): 17.3843% and 7.228%
- apoptotic cells (%) (MDA-MB-231 cells; mean): 12.31%
- apoptotic cell population (MDA-MB-231 cells; MDA-MB-231, 24 h): 12%
